Common to all, as to format: cell-based
Assay [1] concerns the target 5-HT2A receptor (Homo sapiens, UniProt P28223). The assay can be described thus: Calcium flux test for 5-HT2A receptor. Conditions: CHO cell strain stably expressing 5-HT2A receptor; for IC50: calcium flux, antagonism of serotonin; for 5-HT2A Max Inh %: positive control ketanserin 10^−7 M. As to the method:
• Fluo-4 calcium flux detection kit was purchased from Invitrogen; a CHO cell strain stably expressing 5-HT2A receptor was purchased from PerkinElmer; serotonin was purchased from Sigma; ketanserin was purchased from Targetmol; polylysine-coated 384-well plates and 384-well compound plates were purchased from Greiner Bio-One. Molecular Device FLIPR, Agilent Bravo liquid workstation, and Countstar BioTech cell counter.
• (1) The cryopreserved cells were rapidly thawed in a water bath at 37° C., and the cells were resuspended in a plating medium. The cryopreservation solution was removed by centrifugation at 200×g. The pellet was resuspended in an appropriate amount of plating medium, 20 μL of cell suspension was counted using a cell counter, and the cell density was diluted to 1×10^6 cells/mL. • (2) 20 μL of cell suspension was added to a polylysine-coated 384-well plate (2×10^4 cells/well). • (3) The cell plate was incubated in a 37° C./5% CO2 incubator for 16-20 h.
• (1) The cell plate was taken out from the incubator and centrifuged at 100×g to remove the medium. 20 μL of experimental buffer was added, and then 20 μL of 2× fluorescent probe solution was added. […] The cell plate and agonist positive compound plate were placed into the FLIPR instrument, the detection program was run, 10 μL of the diluted compound was transferred from the agonist compound plate to the cell plate, and the fluorescence signal was read. […] The cell plate and test compound plate were placed in the FLIPR instrument, the detection program was run, and 10 μL of the diluted compound was transferred from the test compound plate to the cell plate. […] The test compound plate was then taken out, and the agonist positive compound plate with 6×EC50 concentration was placed.
Inhibition rate (Inhibition %)=(negative control reading value−compound reading value)/(negative control reading value−positive control reading value)×100%
(A change in cytosolic calcium serves as a functional read-out for many receptors and channels.)

For assay [2], the target named is T1, 5-HT1A receptor (Homo sapiens, UniProt P08908).
T1 construct: expressed in transfected cells
T1 sequence (P08908 1-422): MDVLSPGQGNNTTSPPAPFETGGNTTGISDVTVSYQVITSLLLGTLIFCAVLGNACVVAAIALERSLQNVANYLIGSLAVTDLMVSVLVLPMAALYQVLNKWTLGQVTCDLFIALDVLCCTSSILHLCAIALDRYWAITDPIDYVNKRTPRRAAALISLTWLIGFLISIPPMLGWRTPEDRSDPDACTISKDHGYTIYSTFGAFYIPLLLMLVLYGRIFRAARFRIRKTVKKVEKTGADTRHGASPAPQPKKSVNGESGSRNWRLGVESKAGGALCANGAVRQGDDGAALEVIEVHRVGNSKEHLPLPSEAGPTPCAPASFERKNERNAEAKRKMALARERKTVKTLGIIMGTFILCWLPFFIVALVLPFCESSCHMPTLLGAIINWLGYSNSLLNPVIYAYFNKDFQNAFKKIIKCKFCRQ
The assay can be described thus: 5-HT1A receptor cAMP agonist test. The following applies: HEK293 cell strain stably expressing 5-HT1A receptor; for EC50: cAMP, forskolin 2.5×10^−7 M; for 5-HT1A Max Act %: positive control serotonin 10^−6 M. The text has this: • cAMP detection kit was purchased from Cisbio; an HEK293 cell strain stably expressing 5-HT1A receptor was constructed by Shanghai Shujing Biopharma Co., Ltd.; serotonin, forskolin, and IBMX were purchased from Sigma; ProxiPlate-384 well plates were purchased from PerkinElmer; HBSS was purchased from Thermo Fisher Scientific.
(§1) • (1) The cultured cells were digested with trypsin, and the cell suspension was washed with HBSS buffer after the digestion was terminated. The medium was removed by centrifugation at 200×g. The pellet was resuspended in an appropriate amount of experimental buffer, and 20 μL of cell suspension was counted using a cell counter and diluted to 0.4×10^6 cells/mL. • (2) 5 μL of cell suspension was added to a ProxiPlate-384 well plate (2×10^3 cells/well). • (3) Test compounds were serially diluted in an experimental buffer, and 5 μL of the mixed solution was transferred to the reaction plate with Bravo.

The target of assay [3] is T2, D2L receptor (Homo sapiens, UniProt P14416).
T2 construct: expressed in transfected cells
As to the kind of experiment: D2L receptor cAMP agonist test. Conditions: HEK293 cell strain stably expressing D2L receptor; for EC50: cAMP, forskolin 0.5 μM; for D2L Max Act %: positive control dopamine 1 μM. As for the experimental part: • cAMP detection kit was purchased from Cisbio; an HEK293 cell strain stably expressing D2L receptor was constructed by Shanghai Shujing Biopharma Co., Ltd.; dopamine, forskolin, and IBMX were purchased from Sigma; ProxiPlate-384 well plates were purchased from PerkinElmer; HBSS was purchased from Thermo Fisher Scientific.
• (1) The cryopreserved cells were thawed in a water bath at 37° C., the cell suspension was resuspended in HBSS buffer, and the mixed solution was centrifuged at 750 rpm for 5 min to remove the medium. The pellet was resuspended in an appropriate amount of experimental buffer, and an appropriate amount of cell suspension was diluted to 0.4×10^6 cells/mL. • (2) 5 μL of cell suspension was added to a ProxiPlate-384 well plate (2×10^3 cells/well), and the plate was centrifuged at 1000 rpm for 1 min. • (3) Test compounds were serially diluted in an experimental buffer, and 5 μL of the mixed solution was transferred to the reaction plate with Bravo.

For assay [4], the target named is T3, D2S receptor (Homo sapiens, UniProt P14416).
T3 construct: expressed in transfected cells
The assay can be described thus: D2S receptor cAMP agonist test. The following applies: HEK293 cell strain stably expressing D2S receptor; for EC50: cAMP, forskolin 5×10^−7 M; for D2S Max Act %: positive control dopamine 1×10^−7 M.
Source text: cAMP detection kit was purchased from Cisbio; an HEK293 cell strain stably expressing D2S receptor was constructed by Shanghai Shujing Biopharma Co., Ltd.; dopamine, forskolin, and IBMX were purchased from Sigma; ProxiPlate-384 well plates were purchased from PerkinElmer; HBSS was purchased from Thermo Fisher Scientific.
as §1, with “0.6×10^6” for “0.4×10^6”, “(3×10^3” for “(2×10^3”

Chain of 5-HT2A receptor (P28223 whole entry): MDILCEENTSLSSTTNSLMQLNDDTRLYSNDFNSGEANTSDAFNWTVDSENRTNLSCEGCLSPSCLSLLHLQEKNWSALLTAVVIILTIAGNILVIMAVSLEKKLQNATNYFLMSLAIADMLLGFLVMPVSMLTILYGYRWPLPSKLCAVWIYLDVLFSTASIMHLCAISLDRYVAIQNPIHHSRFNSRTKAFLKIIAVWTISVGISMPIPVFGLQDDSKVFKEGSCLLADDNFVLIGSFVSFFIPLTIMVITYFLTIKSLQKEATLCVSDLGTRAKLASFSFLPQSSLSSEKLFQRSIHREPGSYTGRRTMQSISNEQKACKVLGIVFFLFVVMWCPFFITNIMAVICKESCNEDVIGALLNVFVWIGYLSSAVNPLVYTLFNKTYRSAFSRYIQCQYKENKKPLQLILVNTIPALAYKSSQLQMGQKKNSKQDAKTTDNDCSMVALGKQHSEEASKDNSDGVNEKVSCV
T3 sequence (P14416 1-414 isoform P14416-2): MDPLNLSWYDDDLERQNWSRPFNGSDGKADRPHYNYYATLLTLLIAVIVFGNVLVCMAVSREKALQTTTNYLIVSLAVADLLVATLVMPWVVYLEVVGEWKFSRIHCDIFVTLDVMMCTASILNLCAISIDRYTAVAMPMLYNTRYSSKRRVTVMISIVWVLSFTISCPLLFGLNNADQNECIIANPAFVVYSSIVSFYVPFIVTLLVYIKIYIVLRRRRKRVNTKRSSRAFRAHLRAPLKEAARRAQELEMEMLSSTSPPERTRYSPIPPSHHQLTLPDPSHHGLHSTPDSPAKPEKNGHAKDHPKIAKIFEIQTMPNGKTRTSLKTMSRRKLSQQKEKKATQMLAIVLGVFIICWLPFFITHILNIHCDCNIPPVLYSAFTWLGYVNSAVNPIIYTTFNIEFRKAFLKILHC
T2 sequence (P14416 whole entry): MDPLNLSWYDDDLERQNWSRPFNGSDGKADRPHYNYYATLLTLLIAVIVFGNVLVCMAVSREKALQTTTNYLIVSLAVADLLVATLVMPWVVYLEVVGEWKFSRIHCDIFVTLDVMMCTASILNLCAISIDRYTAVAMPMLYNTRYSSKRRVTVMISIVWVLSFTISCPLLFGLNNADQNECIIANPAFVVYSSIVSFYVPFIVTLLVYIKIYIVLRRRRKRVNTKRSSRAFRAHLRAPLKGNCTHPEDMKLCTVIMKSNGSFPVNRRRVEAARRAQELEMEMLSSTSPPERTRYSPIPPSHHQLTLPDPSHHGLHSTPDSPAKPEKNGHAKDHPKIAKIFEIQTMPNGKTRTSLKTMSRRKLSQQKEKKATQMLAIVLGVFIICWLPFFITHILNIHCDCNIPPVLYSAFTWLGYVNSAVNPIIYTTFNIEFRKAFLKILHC

By IC50 is commonly meant the concentration at which inhibition is half-maximal. Usually EC50 stands for the concentration at which the effect is half-maximal. High values mean a less potent agent, low ones a more potent agent. Turning to `O=C1Nc2cc(OCCCCN3CCN(c4cccc5ccsc45)CC3)ccc2C2CC12` (stereo not shown) [Example 48, 5-(4-(4-(Benzo[b]thiophen-7-yl)piperazin-1-yl)butoxy)-1,1a,3,7b-tetrahydro-2H-cyclopropa[c]quinolin-2-one], in assay [1], the half-inhibitory concentration (IC50) was 2410 nM and the “5-HT2A Max Inh %” value is recorded as 100.5%. For the same compound, in assay [2], the concentration giving a half-maximal response (EC50) amounted to 366 nM and the “5-HT1A Max Act %” value amounted to 55.2%. Moreover, in assay [3], a half-maximal response (EC50) required 0.49 nM and the “D2L Max Act %” value is given as 49.0%. Moreover, in assay [4], the concentration giving a half-maximal response (EC50) turned out to be 0.89 nM and the “D2S Max Act %” value amounted to 114.8%.
Regarding `O=C1Nc2cc(OCCCCN3CCN(c4cccc(O)c4Cl)CC3)ccc2C2CC12` (stereo not shown) [Example 38, 5-(4-(4-(2-Chloro-3-hydroxyphenyl)piperazin-1-yl)butoxy)-1,1a,3,7b-tetrahydro-2H-cyclopropa[c]quinolin-2-one], in assay [1], the 50% inhibitory concentration (IC50) was found to be 4850 nM and the “5-HT2A Max Inh %” value is recorded as 98.1%. Besides, in assay [3], the half-maximal effective concentration (EC50) is 1.39 nM and the “D2L Max Act %” value was determined as 32.3%. Moreover, in assay [4], the concentration for a half-maximal effect (EC50) turned out to be 0.88 nM and the “D2S Max Act %” value was 92.4%.
For `O=C1Nc2cc(OCCCCN3CCN(c4cccc5c4OCC5)CC3)ccc2C2CC12` (single isomer, unassigned) [Example 44-P2], in assay [1], the IC50 is 290 nM and the “5-HT2A Max Inh %” value was 99.7%. Besides, in assay [2], the EC50 was found to be 7.05 nM and the “5-HT1A Max Act %” value is given as 48.0%. Besides, in assay [3], the concentration for a half-maximal effect (EC50) was determined as 0.22 nM and the “D2L Max Act %” value was found to be 53.9%. In assay [4], the EC50 turned out to be 0.92 nM and the “D2S Max Act %” value is listed as 89.1%.
As to `O=C1Nc2cc(OCCCCN3CCN(c4ccc(Cl)s4)CC3)ccc2C2CC12` (stereo not shown) [Example 51], in assay [1], the IC50 is 2530 nM and the “5-HT2A Max Inh %” value was 99.8%. Moreover, in assay [2], the concentration for a half-maximal effect (EC50) amounted to 73.4 nM and the “5-HT1A Max Act %” value was 79.4%. In assay [3], the EC50 amounted to 1.53 nM and the “D2L Max Act %” value was 82.6%. In assay [4], it took 0.76 nM to reach a half-maximal effect (EC50) and the “D2S Max Act %” value came out at 111.1%.
With `O=C1Nc2cc(OCCCCN3CCN(c4cccc5c4CC(F)(F)C5=O)CC3)ccc2C2CC12` (stereo not shown) [Example 47, 5-(4-(4-(2,2-difluoro-1-one-2,3-dihydro-1H-inden-4-yl)piperazin-1-yl)butoxy)-1,1a,3,7b-tetrahydro-2H-cyclopropa[c]quinolin-2-one], in assay [1], the IC50 stood at 268 nM and the “5-HT2A Max Inh %” value is recorded as 96.0%. In addition, in assay [2], the midpoint of the response, the EC50, lay at 207 nM and the “5-HT1A Max Act %” value worked out at 75.8%. In addition, in assay [3], it took 0.84 nM to reach a half-maximal effect (EC50) and the “D2L Max Act %” value stood at 35.9%. Moreover, in assay [4], a half-maximal response (EC50) required 0.97 nM and the “D2S Max Act %” value is listed as 102.9%.
Turning to `O=C1Nc2cc(OCCCCN3CCN(c4cccc5c4CCC5)CC3)ccc2C2CC12` (stereo not shown) [Example 43, 5-(4-(4-(2,3-Dihydro-1H-inden-4-yl)piperazin-1-yl)butoxy)-1,1a,3,7b-tetrahydro-2H-cyclopropa[c]quinolin-2-one], in assay [1], the half-inhibitory concentration (IC50) is 971 nM and the “5-HT2A Max Inh %” value was found to be 100.3%. In assay [2], the response was half-maximal at 158 nM (EC50) and the “5-HT1A Max Act %” value was 67.7%. In addition, in assay [3], the EC50 is 0.3 nM and the “D2L Max Act %” value came to 42.8%. Besides, in assay [4], the EC50 was found to be 0.92 nM and the “D2S Max Act %” value turned out to be 134.9%.
For the compound `O=C1Nc2cc(OCCCCN3CCN(c4cccc(Cl)c4O)CC3)ccc2C2CC12` (stereo not shown) [Example 39, 5-(4-(4-(3-Chloro-2-hydroxyphenyl)piperazin-1-yl)butoxy)-1,1a,3,7b-tetrahydro-2H-cyclopropa[c]quinolin-2-one], in assay [1], the IC50 turned out to be 2930 nM and the “5-HT2A Max Inh %” value came out at 94.2%.
`O=C1Nc2cc(OCCCCN3CCN(c4cccc5[nH]ccc45)CC3)ccc2C2CC12` (stereo not shown) [Example 52, 5-(4-(4-(1H-Indol-4-yl)piperazin-1-yl)butoxy)-1,1a,3,7b-tetrahydro-2H-cyclopropa[c]quinolin-2-one]: in assay [1], the IC50 amounted to 1590 nM and the “5-HT2A Max Inh %” value was determined as 99.9%. In assay [3], the EC50 was 0.31 nM and the “D2L Max Act %” value is listed as 65.3%.

For the origin of these results see patent US20240368115A1, “REGULATOR CONTAINING TRICYCLIC DERIVATIVE, PREPARATION METHOD THEREFOR AND APPLICATION THEREOF” (SHUJING BIOPHARMA CO., LTD, priority 2021, published 2024).
